In patent US7541359B2, “N-heteroarylpiperazinyl ureas as modulators of fatty acid amide hydrolase” (Janssen Pharmaceutica N.V., priority 2005, dated 2009):

How the values were obtained:
Assay type in all cases: biochemical
FAAH [1] = target: T1, FAAH (Homo sapiens, UniProt O00519); test: Assay Method 2: FAAH assay, homogenate of SK-N-MC cells transfected with human FAAH; parameters: expressed in transfected cells; host or cells: SK-N-MC cells, electroporated, G418-selected clones; conditions: human FAAH transfected SK-N-MC cell homogenate; 3H-AEA tracer 80 nM; rt 1 h
T1 sequence (O00519 1-579): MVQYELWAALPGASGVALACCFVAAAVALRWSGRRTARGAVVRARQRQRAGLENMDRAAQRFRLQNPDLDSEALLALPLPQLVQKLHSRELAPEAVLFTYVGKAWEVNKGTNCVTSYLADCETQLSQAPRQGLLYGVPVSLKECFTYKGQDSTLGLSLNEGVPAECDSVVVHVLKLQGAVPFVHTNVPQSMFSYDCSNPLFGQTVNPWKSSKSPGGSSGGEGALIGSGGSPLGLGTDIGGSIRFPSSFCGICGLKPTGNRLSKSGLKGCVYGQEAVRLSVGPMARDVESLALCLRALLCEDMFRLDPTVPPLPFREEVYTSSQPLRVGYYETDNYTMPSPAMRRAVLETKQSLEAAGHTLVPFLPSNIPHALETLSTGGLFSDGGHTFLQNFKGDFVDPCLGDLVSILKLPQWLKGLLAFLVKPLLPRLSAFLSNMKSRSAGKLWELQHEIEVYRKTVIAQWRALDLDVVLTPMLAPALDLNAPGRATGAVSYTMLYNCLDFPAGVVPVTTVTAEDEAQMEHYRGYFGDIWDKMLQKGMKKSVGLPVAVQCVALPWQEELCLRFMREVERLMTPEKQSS
Experimental: Assay Method 2 A. Transfection of Cells with Human FAAH
(§1) A 10-cm tissue culture dish with a confluent monolayer of SK-N-MC cells was split 2 days (d) prior to transfection. Using sterile technique, the media was removed and the cells were detached from the dish by the addition of trypsin. One fifth of the cells were then placed onto a new 10-cm dish. Cells were grown in a 37° C. incubator with 5% CO2 in Minimal Essential Media Eagle with 10% Fetal Bovine Serum. After 2 d, cells were approximately 80% confluent. These cells were removed from the dish with trypsin and pelleted in a clinical centrifuge. The pellet was re-suspended in 400 μL complete media and transferred to an electroporation cuvette with a 0.4 cm gap between the electrodes. Supercoiled human FMH cDNA (1 μg) was added to the cells and mixed. The voltage for the electroporation was set at 0.25 kV, and the capacitance was set at 960 μF. After electroporation, the cells were diluted into complete media (10 mL) and plated onto four 10-cm dishes. Because of the variability in the efficiency of electroporation, four different concentrations of cells were plated. The ratios used were 1:20, 1:10, and 1:5, with the remainder of the cells being added to the fourth dish. The cells were allowed to recover for 24 h before adding the selection media (complete media with 600 μg/mL G418). After 10 d, dishes were analyzed for surviving colonies of cells. Dishes with well-isolated colonies were used. Cells from individual colonies were isolated and tested.
(§2) The assay mixture consisted of 50 μL of the cell homogenate, 10 μL of the test compound, and 40 μL of anandamide [1-^3H-ethanolamine] (^3H-AEA, Perkin-Elmer, 10.3 Ci/mmol), which was added last, for a final tracer concentration of 80 nM. The reaction mixture was incubated at rt for 1 h. During the incubation, 96-well Multiscreen filter plates (catalog number MAFCNOB50; Millipore, Bedford, Me., USA) were loaded with 25 μL of activated charcoal (Multiscreen column loader, catalog number MACL09625, Millipore) and washed once with 100 μL of MeOH. Also during the incubation, 96-well DYNEX MicroLite plates (catalog number NL510410) were loaded with 100 μL of MicroScint40 (catalog number 6013641, Packard Bioscience, Meriden, Conn., USA). After the 1 h incubation, 60 μL of the reaction mixture were transferred to the charcoal plates, which were then assembled on top of the DYNEX plates using Centrifuge Alignment Frames (catalog number MACF09604, Millipore). The unbound labeled ethanolamine was centrifuged through to the bottom plate (5 min at 2000 rpm), which was preloaded with the scintillant, as described above. The plates were sealed and left at rt for 1 h before counting on a Hewlett Packard TopCount.

Rat FAAH = target: T2, Rat FAAH (Rattus norvegicus, UniProt P97612); test: Assay Method 3: FAAH assay, homogenate of SK-N-MC cells transfected with rat FAAH; conditions: rat FAAH transfected SK-N-MC cell homogenate; 3H-AEA tracer 80 nM; rt 1 h
T2 construct: expressed in transfected cells; host or cells: SK-N-MC cells, electroporated, G418-selected clones
T2 sequence (P97612 1-579): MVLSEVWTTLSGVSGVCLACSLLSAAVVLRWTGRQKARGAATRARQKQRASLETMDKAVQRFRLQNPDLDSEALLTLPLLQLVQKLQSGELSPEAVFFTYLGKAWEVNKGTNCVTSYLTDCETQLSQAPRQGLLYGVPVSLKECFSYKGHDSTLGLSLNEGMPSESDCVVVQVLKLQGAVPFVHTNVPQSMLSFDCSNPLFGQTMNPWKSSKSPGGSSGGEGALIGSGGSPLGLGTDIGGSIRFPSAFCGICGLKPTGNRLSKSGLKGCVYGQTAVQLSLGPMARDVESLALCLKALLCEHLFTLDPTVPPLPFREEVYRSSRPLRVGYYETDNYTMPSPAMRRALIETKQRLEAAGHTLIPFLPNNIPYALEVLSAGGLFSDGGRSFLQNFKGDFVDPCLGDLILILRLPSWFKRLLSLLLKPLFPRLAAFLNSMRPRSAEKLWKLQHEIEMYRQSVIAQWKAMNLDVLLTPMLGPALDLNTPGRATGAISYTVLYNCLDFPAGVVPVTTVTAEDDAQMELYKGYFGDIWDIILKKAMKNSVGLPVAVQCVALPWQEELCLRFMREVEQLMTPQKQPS
Experimental: Assay Method 3 A. Transfection of Cells with Rat FAAH
as §1, with “rat” for “human”, “The ratios used were 1:20, 1:10, and 1:5, with the remainder of the cells being added to the fourth dish. The cells were allowed to recover for 24 h before adding the selection media (complete media with 600 μg/mL G418).” left out
as §2, with “MAFCNOB50:” for “MAFCNOB50;”, “Mass.,” for “Me.,”, “Also during the incubation, 96-well DYNEX MicroLite plates (catalog number NL510410) were loaded with 100 μL of MicroScint40 (catalog number 6013641, Packard Bioscience, Meriden, Conn., USA).” left out

FAAH [2] = target: T1, FAAH; test: Assay Method 1: FAAH assay, T84 cell homogenate, 3H-anandamide hydrolysis; parameters: T84 frozen pellets (contents of 1-4×15 cm culture dishes) were homogenized in 300 mL of FAAH assay buffer; endogenous in cells; host or cells: T84 cells (homogenate); conditions: 3H-AEA tracer 200 nM, rt 1 h
Experimental: The assay mixture was prepared from 50 μL of the cell homogenate, 10 μL of the test compound, and 40 μL of anandamide [1-^3H-ethanolamine] (^3H-AEA; Perkin-Elmer, 10.3 Ci/mmol), which was added last, for a final tracer concentration of 200 nM. The reaction mixture was incubated at rt for 1 hour (h). During the incubation, 96-well Multiscreen filter plates (catalog number MAFCNOB50; Millipore, Bedford, Mass. USA) were loaded with 25 μL of activated charcoal (Multiscreen column loader, catalog number MACL09625, Millipore) and washed once with 100 μL of MeOH. […] After the 1 h incubation, 60 μL of the reaction mixture were transferred to the charcoal plates, which were then assembled on top of the DYNEX plates using Centrifuge Alignment Frames (catalog number MACF09604, Millipore). The unbound, labeled ethanolamine was centrifuged through to the bottom plate (5 min at 2000 rpm), which was preloaded with the scintillant, as described above. The plates were sealed and left at rt for 1 h before counting on a Hewlett Packard TopCount.

SMILES	IC50 (FAAH [1])	IC50 (Rat FAAH)	IC50 (FAAH [2])
O=C(Nc1ccccc1)N1CCN(c2nc(-c3cccs3)ns2)CC1 [Example 42, 4-(3-Thiophen-2-yl-[1,2,4]thiadiazol-5-yl)-piperazine-1-carboxylic acid phenylamide]	60 nM	300 nM	
O=C(Nc1ccccc1)N1CCN(c2nc(N3CCCCC3)ns2)CC1 [Example 27, 4-(3-Piperidin-1-yl-[1,2,4]thiadiazol-5-yl)-piperazine-1-carboxylic acid phenylamide]	260 nM	1100 nM	
O=C(Nc1ccccc1)N1CCN(c2nc(N3CCCC3)ns2)CC1 [Example 28, 4-(3-Pyrrolidin-1-yl-[1,2,4]thiadiazol-5-yl)-piperazine-1-carboxylic acid phenylamide]	3000 nM	5000 nM	
O=C(Nc1nccs1)N1CCN(c2nc(-c3ccccc3)ns2)CC1 [Example 32, 4-(3-Phenyl-[1,2,4]thiadiazol-5-yl)-piperazine-1-carboxylic acid thiazol-2-ylamide]	450 nM	77 nM	
O=C(Nc1ccccc1)N1CCN(c2nc(-c3ccco3)ns2)CC1 [Example 40, 4-(3-Furan-2-yl-[1,2,4]thiadiazol-5-yl)-piperazine-1-carboxylic acid phenylamide]	540 nM	2000 nM	
O=C(Nc1ccccc1)N1CCN(c2nc(N3CCOCC3)ns2)CC1 [Example 44, 4-(3-Morpholin-4-yl-[1,2,4]thiadiazol-5-yl)-piperazine-1-carboxylic acid phenylamide]	> 10000 nM	> 10000 nM	
O=C(Nc1ncccn1)N1CCN(c2nc(-c3ccccc3)ns2)CC1 [Example 31, 4-(3-Phenyl-[1,2,4]thiadiazol-5-yl)-piperazine-1-carboxylic acid pyrimidin-2-ylamide]	160 nM	30 nM	

Further lines, results first:

IC50 (FAAH [1])	IC50 (Rat FAAH)	IC50 (FAAH [2])	SMILES
60 nM	57 nM		O=C(Nc1ccccc1)N1CCN(c2nc(-c3cc(Cl)cc(Cl)c3)ns2)CC1 [Example 39, 4-[3-(3,5-Dichloro-phenyl)-[1,2,4]thiadiazol-5-yl]-piperazine-1-carboxylic acid phenylamide]
> 10000 nM	5000 nM		CC1CCN(c2nsc(N3CCN(C(=O)Nc4ccccc4)CC3)n2)CC1 [Example 29, 4-[3-(4-Methyl-piperidin-1-yl)-[1,2,4]thiadiazol-5-yl]-piperazine-1-carboxylic acid phenylamide]
350 nM	590 nM		O=C(Nc1ccccc1)N1CCN(c2nc(-c3ccoc3)ns2)CC1 [Example 41, 4-(3-Furan-3-yl-[1,2,4]thiadiazol-5-yl)-piperazine-1-carboxylic acid phenylamide]
130 nM	120 nM		O=C(Nc1ccccc1)N1CCN(c2nc(-c3ccsc3)ns2)CC1 [Example 43, 4-(3-Thiophen-3-yl-[1,2,4]thiadiazol-5-yl)-piperazine-1-carboxylic acid phenylamide]
	18 nM	28 nM	O=C(Nc1ccncc1)N1CCN(c2nc(-c3ccccc3)ns2)CC1 [Example 33, 4-(3-Phenyl-[1,2,4]thiadiazol-5-yl)-piperazine-1-carboxylic acid pyridin-4-ylamide]
43 nM	84 nM		Cc1cccc(-c2nsc(N3CCN(C(=O)Nc4ccccc4)CC3)n2)c1 [Example 38, 4-(3-m-Tolyl-[1,2,4]thiadiazol-5-yl)-piperazine-1-carboxylic acid phenylamide]
	46 nM		O=C(Nc1ccccc1)N1CCN(c2nc(-c3ccccc3)ns2)CC1 [Example 1, 4-(3-Phenyl-[1,2,4]thiadiazol-5-yl)-piperazine-1-carboxylic acid phenylamide]
